Experimental data taken from US20220288075A1, “METHOD AND COMPOSITION FOR TREATING PAIN” (ACADEMIA SINICA, priority 2019, published 2022).

What was measured:
LPC16:0 = assay: Serum LPC16:0 level in RISS mice at P0 by mass spectrometry; type: in vivo; details: darapladib 10 mg/kg i.p. once daily, P0, triple quadrupole MS, vs vehicle; FIG. 3N
Method: Antioxidants: Systemic administration of NAC (200 mg/kg bodyweight, i.p.; Sigma-Aldrich) with Tempol (100 mg/kg bodyweight, i.p.; Sigma-Aldrich) or vehicle (phosphate buffered saline; PBS) was given 30 min before and after each RISS procedure at days 1, 3 and 4 (FIG. 3M)^48-50. A total of 6 doses of drug were given during the RISS protocol. Sensory testing was performed 1 hour after the last drug injection at P0 and at P4 and P7. PAF-AH inhibitors. Darapladib (Cayman, Ann Arbor, Mich.) was solubilized in DMSO: PBS containing 1% methyl-β-cyclodextrin (1:99) and given once daily by i.p. injection at 10 mg/kg body weight. Mice were randomly assigned to receive vehicle or darapladib for 5 consecutive days during RISS (FIG. 3M). […] Triple quadrupole mass spectrometry (QqQ MS) for absolute quantitative analysis of target lipids. Targeted analysis of LPC16:0, LPC18:0 and SM(d18:1/18:0) was measured by using an Agilent-1200 liquid chromatography system coupled to an Agilent-6410 QqQ MS with an ESI interface. […] Lipidomic profiling for relative quantitative analysis. Lipids were identified by comparing the LC/MS profiles of the metabolites of interest to that of a standard compound analyzed with identical conditions, and their relative abundance among samples was further evaluated. […] Collected data were processed with Progenesis QI (Waters) for lipid identification and relative quantitative analysis.

RISS mice = assay: RISS (repeated and intermittent sound stress) model, sensory testing (von Frey, muscle withdrawal threshold, Hargreaves); type: in vivo; details: darapladib 10 mg/kg i.p. once daily throughout the RISS procedure, vs vehicle; FIG. 3N
Text: Sound stressors were applied as described^14, 43 with modification. Mice were placed (3 per cage) in a 20×30×15 cm bedding cage, which was kept 25 cm below a speaker, inside a 40×50×35 cm sound-insulated box. A speaker emitted pure tones at 5 frequencies (5, 11, 13, 15 and 19 kHz) with random amplitudes varied over time for each frequency (0, 20, 60, 90, and 100 dB sound). Each tone stimulus lasted for 5 or 10 sec in random order, and mice were stimulated continuously without interval. The sound stressors continued for 30 min as a set. In the original SS (sound stress) protocol, a set of 30-min stimuli was given once a day on days 1, 3, and 4 (FIG. 1A)^14. The RISS model intensified the stress protocol by increasing the stimulus frequency: a set of sound stimulus was repeated every 3 hours for 6 times overnight (from 16:00 to 10:00), followed by resting silence for 6 hours (from 10:00 to 16:00). The procedure was repeated on days 1, 3, and 4 as for the SS protocol. The control groups were placed in similar chambers for 4 days without stress exposure. Both groups of mice had access to food and water freely during the stress period. After the stimulus procedure, mice were returned to their original home cages in the animal care facility. In both the SS and RISS protocols, the day after completing the stress stimuli is called P0; the post-stress day 1, P1; and so on. In the experimental design of the […] single-day stimuli of intermittent SS (SISS), the day after SISS is called P′0; the post-stress day 1, P′1; and so on.
Animals were placed on an elevated mesh platform, and a 0.2-mN von Frey filament was applied to the plantar surface of both hind paws. A positive response was defined as lifting, shaking, guarding, or licking paws when the stimulus was applied. For each paw, the filament was applied 5 times at 30-sec intervals.
Mice were placed individually in Acrylic cubicles mounted on a glass surface maintained at 30° C. The test was performed after acclimatization. The thermal stimulus of the radiant heat was then applied to the plantar surface of each hind paw. Each mouse was tested in three sequential trials with an interval of 2-3 min. The assay cutoff was set at 30 sec to prevent tissue damage. Paw withdrawal latencies were calculated as the mean of three measures.
Muscle withdrawal thresholds were evaluated as described^46. […]
Analgesic drugs: Pregabalin (0.3, 1, 3 or 10 mg/kg bodyweight, i.p.; Toronto Research Chemicals), morphine (0.3, 1, 3 or 10 mg/kg bodyweight, i.p.), diclofenac (1, 3 or 10 mg/kg bodyweight, i.p.; Sigma-Aldrich) or vehicle (0.9% saline) was administered, and the effect of each drug was evaluated by testing 6 mice. […]

CCN(CC)CCN(Cc1ccc(-c2ccc(C(F)(F)F)cc2)cc1)C(=O)Cn1c(SCc2ccc(F)cc2)nc(=O)c2c1CCC2 [darapladib, N-[2-(diethylamino)ethyl]-2-{2-[(4-fluorobenzyl)sulfanyl]-4-oxo-4,5,6,7-tetrahydro-1H-cyclopenta[d]pyrimidin-1-yl}-N-{[4′-(trifluoromethyl)biphenyl-4-yl]methyl}acetamide]
LPC16:0 production after RISS (serum level) (LPC16:0): significantly reduced
development of RISS-induced chronic hypersensitivity (von Frey test) (RISS mice): prevented the development of chronic hypersensitivity
